Reference: US20230263825A1, “ANTI-CANCER ACTIVITY OF PERBORATE SALTS” (priority 2020, published 2023)
Entries after “also recorded” stand apart in the source; their conditions may differ.

Columns and labels:
Format in all cases: cell-based
[1] = test system: PSN-1 (a pancreatic adenocarcinoma cell line); test: MTS cytotoxicity assay, single agents and combinations; settings: PSN-1, alone
Protocol: An MTS reduction (MTS (3-(4,5-dimethylthiazol-2-yl)-5-(3-carboxymethoxyphenyl)-2-(4-sulfophenyl)-2H-tetrazolium) assay) was conducted to analyze the cytotoxic effect of sodium perborate tetrahydrate on lung, chordoma and pancreatic cells and normal cells. In this method, cell viability is determined via the activity of mitochondrial dehydrogenase enzyme, which reduces the tetrazolium dye MTS to its […] formazan (absorbance maximum of 490 nm in PBS).
Cells were counted and seeded in 96-well culture dishes. […] The positive control comprised 20% Dimethyl Sulfoxide and the negative control comprised complete growth media. Seeding densities were as follows: DMS114: 20.000 cells/well; MRC5: 5.000 cells/well; CH22: 2.000 cells/well; JHC7, UM-Chor1, MUG-Chor1, UCH1 and NPH: 5.000 cells/well; PSN1: 10.000 cells/well; BxPC3 and ASPC: 7.500 cells/well. The effect of sodium perborate tetrahydrate on cell viability was measured as follows. The cell culture medium was discarded and 100 μl of MTS solution (10% glucose solution and 1% MTS-PMS solution in PBS) was added into each well. After 1 hour incubation in a humidified incubator, an absorbance reading was taken to determine mitochondrial dehydrogenase activity and cell survival was calculated relative to the negative control.

[2] = test system: MRC5 cells (healthy lung cells); test: Flow cytometry (Annexin V / PI) cell death pathways; settings: 15 μg/mL, 3 days
Protocol: (§1) Cell death pathways were analysed using the Annexin V method, performed by flow cytometry. In this method, Annexin V dye is used to detect cells entering the apoptosis death pathway (Sigma-Aldrich Cat No: 11858777001), while PI (Propidium Iodide) dye is used to detect cells entering the necrosis death pathway (Sigma-Aldrich Cat No: 11858777001).
(§2) Cells were grown in complete RPMI media (completed with 10% Fetal Bovine Serum and 1% penicillin streptomycin amphotericin) in a humidified CO2 incubator (80% humidity, 5% CO2 and 37° C.). At 70-80% confluency, cells were harvested using Trypsin/EDTA solution. After 3 days of sodium perborate tetrahydrate treatment (15 μg/mL), the cells were harvested and divided into 4 equal tubes. […] Only PI dye was placed in the second tube and necrotic cells were detected. Annexin V dye was placed in the third tube and apoptotic cells were detected. In the fourth tube, two dyes were put together. […] On the other hand, over 90% of MRC5 cells were alive in the control as well as following treatment with sodium perborate tetrahydrate, with only a small percentage (<5%) of treated cells in necrosis.

[3] = test system: DMS114 cells (small cell lung cancer cells); test: as above; settings: 15 μg/mL, 3 days
Protocol: as §1, §2

DMS114 cells = test: Video analysis of cell movement and division; settings: 72 hour treatment
Protocol: (§3) The DMS114 and MRC5 cells from Example 2 were analyzed during the 3 day treatment period with sodium perborate tetrahydrate. Roughly 20 photos/hour were taken of the cells over the 72 hour (3 day) period. The resulting 1500 were merged to create a video which was used to observe the effect of sodium perborate on movement and division of DMS114 and MRC5 cells. […] FIGS. 21A and 21B show DMS114 cells at the start and end of the 72 hour treatment period. FIGS. 22A and 22B show MRC5 cells at the start and end of the 72 hour treatment period.

MRC5 cells = test: Video analysis of cell movement and division
Protocol: as §3

SMILES: O.O.O.O.[Na+].[O-]B1OO1 [sodium perborate tetrahydrate]
- EC50 concentration [1]: 7.5 µg/mL
- damage to healthy cells (MRC5) relative to cancer cells (DMS114), times less [2]: approximately 5 times
- cells alive ([2]; MRC5): over 90%
- treated cells in necrosis ([2]; MRC5): less than 5%
- cells alive [3]: less than 5%
- cells in early apoptosis [3]: ~80%
- cells in late apoptosis [3]: ~10%
- DMS114 cells whose movement was stopped (DMS114 cells): ~100%
- division and movement of healthy cells (MRC5 cells): slowing cell division and movement of healthy cells to some extent; also recorded: only slowed the division and movement
